What all share (assay type): cell-based
One test relates to B. subtilis DSM10. Description: MIC determination (microdilution, M07-A9). As to conditions: Bacillus subtilis. As to the method:
(§1) MIC values were determined according to the ninth edition of the Approved Standard M07-A9. The test was carried out for six different bacterial strains (E. coli DSM 1116 (Gram-negative), E. coli BW25113 (Gram-negative), B. subtilis DSM 10 (Gram-positive), M. luteus DSM 1790 (Gram-positive), M. phlei DSM 750 (Gram-positive), S. typhimurium TA 100 (Gram-negative). First, 20 µl of glycerol stock of each strain was inoculated in 20 ml LB (Lennox) followed by incubation overnight at 37 °C, 200 r.p.m. The test inoculum was adjusted by the 0.5 McFarland Standard. Within 15 min of preparation, the adjusted inoculum suspension was diluted in MHBII so that each well contained approximately 5 × 10^5 c.f.u. ml^−1 in a final volume of 100 µl. Then, 95 µl of the inoculum was applied per well and 5 µl of the (diluted) albicidins was added. For dilutions, the dry powders were dissolved in dimethylsulfoxide (DMSO) with a concentration of 2.56 mg ml^−1, and the obtained stock solutions were further diluted in DMSO. Next, 5 µl of each antibiotic dilution was applied to the microdilution tray to reach final concentrations of 8 to 0.016 µg ml^−1. One row of each well plate served as a growth control without antibiotic and another row of the microdilution tray served as a sterility control (only MHBII media). The antimicrobial effect of the solvent was tested by adding 5 µl DMSO to several wells. Purity check and cell titre control were performed according to International Standard M07-A9 on Mueller–Hinton II Agar. Both microdilution trays and agar plates were incubated at 37 °C for 20 h.
Background: Dilution methods test growth across graded concentrations, often in twofold steps.

In the next test the test system is E. coli BW25113. Description: MIC determination (microdilution, M07-A9). As to conditions: Escherichia coli; E. coli BW25113; first value in cell (biological replicate); read-out: MIC. As for the experimental part:
as §1

Another test has as its system E. coli DSM116. Description: MIC determination (microdilution, M07-A9). As to conditions: E. coli DSM116. As to the method: as §1
The subject of another test is M. luteus DSM1790. Description: MIC determination (microdilution, M07-A9). As for the experimental part: as §1
In another test the test system is M. phlei DSM750. In words: MIC determination (microdilution, M07-A9). As to conditions: Mycolicibacterium phlei. As for the experimental part:
as §1

The test system of the next test is S. typhimurium TA100. Description: MIC determination (microdilution, M07-A9). As to conditions: Salmonella enterica, first value in cell (biological replicate), read-out: MIC. As to the method: as §1
The subject of test [1] is selected Gram-negative and Gram-positive microorganisms. Description: MIC activity groups over all tested strains. Also noted: key: a: most potent; b: intermediate; least active. As to conditions: MIC panel. As for the experimental part:
as §1

Setting [2] is: first value in cell (biological replicate).
The mark [3] stands for this setting: second value in cell (biological replicate).
Where [4] appears, read: Escherichia coli, first value in cell (biological replicate), read-out: MIC.
The mark [5] stands for this setting: Micrococcus luteus, first value in cell (biological replicate), read-out: MIC.

Where two headings read alike, the source gives them in different places. Marks after values point to notes of the source that are not given here.

As to `COc1ccccc1NC(=O)c1ccc(NC(=O)[C@H](Cc2c[nH]nn2)NC(=O)c2ccc(NC(=O)c3ccc(C#N)cc3)cn2)cn1` [AE-1], the MIC against B. subtilis DSM10 (setting [2]) is > 8 µg/mL; against B. subtilis DSM10 (setting [3]) it was > 8 µg/mL; in the test on E. coli BW25113, > 8 µg/mL; against E. coli DSM116 (setting [3]) it was >8.0 >8.0 µg ml^−1; with E. coli DSM116 (setting [4]), > 8 µg/mL; in the test on M. luteus DSM1790 (setting [5]) it was > 8 µg/mL. Further, the MIC is >8.0 >8.0 µg ml^−1 against M. luteus DSM1790 (setting [3]), > 8 µg/mL against M. phlei DSM750 (setting [2]), > 8 µg/mL against M. phlei DSM750 (setting [3]) and > 8 µg/mL in the test on S. typhimurium TA100. Also, in test [1], the “activity group (superscript letter)” value is reported as “AE-1^c”.

`COc1ccccc1NC(=O)c1ccc(NC(=O)[C@H](Cc2c[nH]nn2)NC(=O)c2ccc(NC(=O)c3ccc(C#N)cc3)cc2)cn1` [AE-2]: the MIC against B. subtilis DSM10 (setting [2]) is > 8 µg/mL; against B. subtilis DSM10 (setting [3]) it was > 8 µg/mL; in the test on E. coli BW25113, > 8 µg/mL; with E. coli DSM116 (setting [3]) it was >8.0 >8.0 µg ml^−1; in the test on E. coli DSM116 (setting [4]) it was > 8 µg/mL; in the test with M. luteus DSM1790 (setting [5]), > 8 µg/mL. Moreover, the MIC against M. luteus DSM1790 (setting [3]) is >8.0 >8.0 µg ml^−1; against M. phlei DSM750 (setting [2]) it was > 8 µg/mL; in the test with M. phlei DSM750 (setting [3]) it was > 8 µg/mL; in the test with S. typhimurium TA100 it was > 8 µg/mL. Moreover, in test [1], the “activity group (superscript letter)” value is “AE-2^c”.

`COc1ccccc1NC(=O)c1ccc(NC(=O)[C@H](Cc2c[nH]nn2)NC(=O)c2ccc(NC(=O)/C(C)=C/c3ccc(O)cc3)cc2)cn1` [AE-3]: the MIC with B. subtilis DSM10 (setting [2]) is > 8 µg/mL; in the test with B. subtilis DSM10 (setting [3]), > 8 µg/mL; with E. coli BW25113, > 8 µg/mL; against E. coli DSM116 (setting [3]), >8.0 >8.0 µg ml^−1; in the test on E. coli DSM116 (setting [4]), > 8 µg/mL; in the test on M. luteus DSM1790 (setting [5]), > 8 µg/mL. Besides, the MIC with M. luteus DSM1790 (setting [3]) was >8.0 >8.0 µg ml^−1; with M. phlei DSM750 (setting [2]), > 8 µg/mL; against M. phlei DSM750 (setting [3]), > 8 µg/mL; in the test with S. typhimurium TA100 it was > 8 µg/mL. Besides, the “activity group (superscript letter)” value in test [1] is recorded as “AE-3^c”.

As for `CC(C)Oc1ccccc1NC(=O)c1ccc(NC(=O)[C@H](Cc2c[nH]nn2)NC(=O)c2ccc(NC(=O)c3ccc(C#N)cc3)cn2)cn1` [AE-4], the MIC in the test on B. subtilis DSM10 (setting [2]) is > 8 µg/mL; with B. subtilis DSM10 (setting [3]) it was > 8 µg/mL; in the test with E. coli BW25113, > 8 µg/mL; in the test with E. coli DSM116 (setting [3]), >8.0 >8.0 µg ml^−1; with E. coli DSM116 (setting [4]), > 8 µg/mL; with M. luteus DSM1790 (setting [5]), > 8 µg/mL. Further, the MIC was >8.0 >8.0 µg ml^−1 against M. luteus DSM1790 (setting [3]), > 8 µg/mL against M. phlei DSM750 (setting [2]), > 8 µg/mL in the test with M. phlei DSM750 (setting [3]) and > 8 µg/mL in the test with S. typhimurium TA100. The “activity group (superscript letter)” value in test [1] is reported as “AE-4^c”.

As usually defined, the MIC is the smallest concentration in the dilution series that meets the test's criterion for growth inhibition.

The record behind these values is article PMC9886550, “Molecular mechanism of topoisomerase poisoning by the peptide antibiotic albicidin” (Nature Catalysis, 2023).
